Test: mn = molality of the nth substance listed, in mol/kg
Settings: Liquid, Vibrating tube method

[Cl-].[Na+] [sodium chloride] + O
mass density [kg/m3]
Settings	298.12 K	323.07 K	348.04 K	372.99 K	397.97 K	422.94 K	447.94 K	472.96 K
900 kPa, m1 = 1.06	1038.78	1028.45	1014.93	998.89	980.42	959.71	936.49	–
900 kPa, m1 = 3.16	1111.08	1098.8	1084.57	1068.6	1051.16	1031.93	1010.87	–
900 kPa, m1 = 6	1194.53	1180.58	1165.53	1149.58	1132.48	1114.2	1094.62	–
9900 kPa, m1 = 1.06	1042.49	1032.1	1018.61	1002.77	984.6	964.31	941.64	916.86
9900 kPa, m1 = 3.16	1114.33	1102.1	1087.94	1072.14	1054.84	1036.08	1015.28	993.19
9900 kPa, m1 = 6	1197.36	1183.46	1168.53	1152.7	1135.74	1117.84	1098.38	1078.2
19900 kPa, m1 = 1.06	1046.61	1036.09	1022.67	1007	989.13	969.29	947.14	923.12
19900 kPa, m1 = 3.16	1117.89	1105.63	1091.54	1075.95	1058.92	–	–	998.47
19900 kPa, m1 = 6	1200.44	1186.57	1171.76	1156.09	1139.35	1121.56	1102.62	1082.67
29900 kPa, m1 = 1.06	1050.58	–	1026.61	1011.16	993.51	974.04	952.41	929
29900 kPa, m1 = 3.16	1121.4	1109.07	1095.09	1079.61	1062.79	1044.51	1024.61	1003.47
29900 kPa, m1 = 6	1203.47	1189.69	1174.98	1159.48	1142.8	1125.33	1106.53	1087.01
39900 kPa, m1 = 1.06	1054.45	1043.77	1030.49	1015.15	997.76	978.6	957.55	934.76
39900 kPa, m1 = 3.16	1124.91	1112.54	1098.65	1083.24	1066.63	1048.68	1029.15	1008.45
39900 kPa, m1 = 6	1206.51	1192.73	1178.07	1162.74	1146.27	1128.98	1110.46	1091.28
49900 kPa, m1 = 1.06	1058.27	1047.49	1034.25	1019.09	1002.02	983.2	962.42	940.22
49900 kPa, m1 = 3.16	1128.21	1115.9	1101.95	1086.77	1070.44	1052.68	–	1013.17
49900 kPa, m1 = 6	1209.49	1195.77	1181.15	1165.95	1149.66	1132.56	1114.27	1095.39
59900 kPa, m1 = 1.06	1061.93	1051.1	1037.94	1022.88	1006.01	987.46	967.35	945.52
59900 kPa, m1 = 3.16	1131.46	1119.2	1105.34	1090.25	1074.07	1056.58	1037.71	1017.78
59900 kPa, m1 = 6	1212.31	1198.7	1184.21	1169	1152.86	1136.03	1118.04	1099.39
68400 kPa, m1 = 1.06	1065.11	1054.12	1041.08	1026.09	1009.32	991.15	971.22	949.91
68400 kPa, m1 = 3.16	1134.29	1121.87	1108.22	1093.16	1077.08	1059.82	1041.14	1021.53
68400 kPa, m1 = 6	1214.78	1201.09	1186.78	1171.6	1155.61	1138.92	1121.1	1102.68

Reference: the NIST ThermoML archive (doi:10.1021/je2013704)
